Laboratory results published in patent publication US20230053524A1, “FUNGICIDES TO PREVENT AND CONTROL FUNGAL PATHOGENS” (priority 2020, published 2023).

Columns and labels:
Assay type in all cases: cell-based
Conditions in all cases: 168 h, read-out: ED50
[1] = tested on: Plectosphaerella cucumerina; experiment: In vitro bioassay, mycelia growth on PDA (Example 1)
Alternaria radicina = experiment: as above
Fusarium graminearum = experiment: microbe, parasite or virus in culture

Structure (SMILES)	EC50 [1]	EC50 (Alternaria radicina)	EC50 (Fusarium graminearum)
C[S+]([O-])CCCCCCCCN=C=S (stereo not drawn) [100/0, 1-Isothiocyanato-8-(methylsulfinyl)-octane]	312 µM	228 µM	331 µM
CS(=O)(=O)CCCCCCCCN=C=S [0/100, 1-Isothiocyanato-8-(methylsulfonyl)-octane]	480 µM	763 µM	536 µM
